Assay [1] deals with T1, PRL-3 (Homo sapiens, UniProt O75365).
T1 construct: His-TEV (cleaved yes); made in house
The experiment in a line: DiFMUP phosphatase activity assay for PRLs. The assay is classed as biochemical. The method, then:
Biochemical phosphatase activity measurements were carried out in the presence of different concentrations of various polyphenols, compounds 1–11 (Fig 1), using recombinant PRL-3 and 6,8-difluoro-4-methylumbelliferyl phosphate (DiFMUP) as a fluorogenic substrate (see the experimental procedures). We observed that the monomeric epicatechins EGC and EC inhibit PRL-3 only weakly, with a slightly better activity of EGC, which bears three hydroxyl groups at the B-ring. […] In general, as a basic structure activity-relationship the following trend was observed: a higher number of hydroxyl groups at the B-ring increased the activity slightly. […] The influence of the stereochemistry at C(2)–C(3) was studied by using GCG (the trans-epimer of EGCG).
(§1) Fig 2 Effect of polyphenolic compounds 8 (A), 9 (B), 10 (C) and 11 (D) on the phosphatase activity of PRL-1, PRL-2, PRL-3, PP1, and PP2A. Proteins were incubated for 30 min with 0–1000 μM of the corresponding procyandin 8–11. Phosphatase activity was measured in the presence of DiFMUP at 25°C using the concentration corresponding to the KM of each protein. The KM for PRLs was determined separately (PRL-3 = 21 μM, PRL-2 and PRL-1 = 24 μM). The KM for PP1 (91 μM) and for PP2A (100 μM) was taken from the literature. Protein concentrations are 50 nM for all PRLs and 2 mU for PP1 and 0.05 U for PP2A (see the Experimental Procedures). Phosphatase activity in the absence of inhibitors was set as 100%. Data represent means ± standard errors of the mean (n = 3–5).
(§2) DiFMUP assay for PRLs: In a final reaction volume of 100 μL the PRLs (50 nM final concentration) were incubated with decreasing concentrations of the inhibitory polyphenols for 30 minutes at 25°C. The buffer conditions were 108 mM TrisCl (pH 7.5), Triton 0.05% (v/v), DTT 27.0 mM, NaCl 811 mM. After the incubation time 20 μL DiFMUP (6,8-Difluoro-4-methylumbelliferyl phosphate) was added to reach a final concentration of 21 μM for PRL-3 and 24 μM for PRL-1 and PRL-2. On a Tecan safire2 (Tecan, Salzburg, Austria) plate reader dephosphorylation of the substrate to its fluorescent product was monitored by following the emission at 358 nm with excitation at 452 nm for 20 minutes. All measurements were done in triplicates, and the experiments were repeated at least three times. The slopes of the initial phases were obtained by linear regression of the data points. The normalized reaction rates were plotted versus the log of the inhibitor concentrations and the IC50 values were obtained by fitting the curves using the one site competition model of GraphPad Prism (GraphPad Software, Version 5). KM values were determined by measuring reaction kinetics of substrate dilution series. Initial velocities were plotted against DiFMUP concentration and the data was analyzed by Michaelis-Menten kinetics curve fitting of GraphPad Prism. A final DMSO content of 0.4% was maintained for the monomeric catechins. Due to the high water solubility of the procyanidins DMSO was not required and measurements were done in assay buffer only.

The target of assay [2] is T2, PRL-1 (Homo sapiens, UniProt Q93096).
T2 construct: His-TEV (cleaved yes); made in house
T2 sequence (Q93096 1-173): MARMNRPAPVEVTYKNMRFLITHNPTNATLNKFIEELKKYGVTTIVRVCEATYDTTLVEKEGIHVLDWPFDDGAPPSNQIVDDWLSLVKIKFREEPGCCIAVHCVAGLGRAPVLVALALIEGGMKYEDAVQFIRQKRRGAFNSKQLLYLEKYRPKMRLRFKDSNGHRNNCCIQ
The experiment in a line: DiFMUP phosphatase activity assay for PRLs. The assay is classed as biochemical. The method, then: as §1, §2

Assay [3] deals with T3, PRL-2 (Homo sapiens, UniProt Q12974).
T3 construct: His-TEV (cleaved yes); made in house
T3 sequence (Q12974 1-167): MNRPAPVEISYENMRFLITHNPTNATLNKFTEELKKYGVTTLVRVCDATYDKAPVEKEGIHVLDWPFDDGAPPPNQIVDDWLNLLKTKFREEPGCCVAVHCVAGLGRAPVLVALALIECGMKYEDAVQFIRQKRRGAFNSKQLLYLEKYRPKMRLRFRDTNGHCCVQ
The experiment in a line: DiFMUP phosphatase activity assay for PRLs. It is filed as biochemical. To be noted: 50 nM PRL-2, 30 min preincubation, 25°C, 24 μM DiFMUP; mean ± SEM (n = 3–5); read-out: IC50 (Ki) PRL-2. The method, then: as §1, §2

Assay [4] addresses T4, PP1 (Oryctolagus cuniculus, UniProt P62139).
T4 construct: purchased NewEngland Biolabs; host or cells: E. coli
The experiment in a line: DiFMUP assay for PP1. It is filed as biochemical. The method, then:
as §1
(§3) BSA, which is usually supplemented to the assay buffer for stabilizing the PPs was however excluded, as BSA is known to form complexes with polyphenolic compounds [40–42] and thus would decrease the concentrations of the inhibitor in the assay. […] In contrast, the phosphatase activity of PP2A was suppressed to a much lesser extent with weak (for trimer 9 and hexamer 11) and strong statistical significance (dimer 8 and tetramer 10). Thus our results corroborate the data reported previously.
DiFMUP assay for PP1: In a final reaction volume of 100 μL PP1c (2 mU final concentration, according to manufacturer’s instructions) were incubated with decreasing concentrations of the inhibitory polyphenols for 30 minutes at 25°C. The assay buffer contained 25 mM imidazole (pH 7.4), 1 mM dithiothreitol (DTT), and 50 mM NaCl. Bovine serum albumin (BSA) was excluded due to possible binding of the polyphenolic compounds. After the incubation time 20 μL DiFMUP (6,8-Difluoro-4-methylumbelliferyl phosphate) was added to reach a final concentration of 100 μM. Monitoring of the fluorescent dephosphorylation product was monitored and data analyzed as described above.

Assay [5] concerns the target T5, PP2A (Homo sapiens, UniProt P67775).
T5 construct: purified from human red blood cells; purchased Merck Millipore; host or cells: human red blood cells
Briefly: DiFMUP assay for PP2A. The assay is classed as biochemical. Conditions: 0.05 U PP2A, 30 min preincubation, 25°C, no BSA, mean ± SEM (n = 3–5), read-out: IC50 (Ki) PP2A. The method, then: as §1, §3
Chemicals and vendors were as follows: Synthesis of Procyanidins (dimer to dodecamer) was done as previously reported. EGCG, EGC, ECG and EC were synthesized as previously reported or purchased from Sigma. (+)-Catechin and 3-(4,5-dimethylthiazol-2-yl)-2,5-diphenyltetrazolium bromide (MTT) were obtained from Sigma. 6,8-Difluoro-4-Methylumbelliferyl Phosphate (DiFMUP), propidium iodide and calcein AM were from lifescience technologies. Cell dissociation solution (10X) was purchased from amsbio. PP1c (recombinant from E. coli) was purchased from NewEngland Biolabs and PP2A (purified from human red blood cells, contains different subunits according to manufacturer) from Merck Millipore. Transwell plates (BRANDplates) and insert stripes for the migration assay were purchased from Brand GmbH. Black 96 well plates (96F Nunclon Delta) were purchased from Thermo Scientific. Transparent 96 well assay plates with UV transparent bottom were purchased from Corning Inc. Wound healing experiments were carried out with μ-dish 35 mm culture inserts, which were purchased from Ibidi.
DiFMUP assay for PP2A: In a final reaction volume of 100 μL PP2A (0.05 U final concentration, according to manufacturer’s instructions) were incubated with decreasing concentrations of the inhibitory polyphenols for 30 minutes at 25°C. The assay buffer contained 50 mM TrisCl (pH 7.5), 250 mM NaCl, 0.1 mM EDTA, 1 mM MnCl2, and 2 mM dithiothreitol (DTT). […] Monitoring of the fluorescent dephosphorylation product was monitored and data analyzed as described above.

The test system of assay [6] is PRL-1 overexpressing HEK293 cells. The experiment in a line: Wound healing assay. It is filed as cell-based. Conditions: 35 μM analog 3, PRL-1 overexpressing cells. The method, then:
(§4) To study if procyanidin C2 is able to inhibit PRL-1 and PRL-3 in cells, HEK293 cells were treated in a wound-healing assay (see the experimental procedures). […] As a control the empty vector cell line was again utilized. […] The migration speed was for all cell lines similar when treated with 50 μM of 9. To further corroborate these findings we performed additionally a transwell assay as an alternative way to study cell migration.
(§5) Fig 6 Wound healing abilities of PRL-1 or PRL-3 overexpressing or empty vector control HEK293 cell lines were analyzed in the presence of compound 9 or medium only. Cells were seeded at a concentration of 800,000 cells per insert and procyanidin C2 (9) was added at a concentration of 25 and 50 μM. A) Pictures of the wound gaps were taken at 0 h and 7 h for both conditions (with and without treatment). B) Quantification of the wound healing experiment. Speed of migration is shown for combined data from different replicates, as mean ± SD (n = 38–88). Two-sided t-tests with Welsh correction were performed for p < 0.05. ns = not significant;***: < 0.001; **: < 0.01; *: < 0.05. C) Effect of polyphenolic compounds in a transwell assay on the cell migration of HEK293 empty vector and PRL-3 overexpressing cell lines. Cells were seeded at a concentration of 100,000 cells per insert and procyanidin C2 (9) was added at a final concentration of 25 and 50 μM. Migration was allowed for 16 h before harvesting and staining with calcein AM for fluorescent readout. Mean ± SD (n = 60–72) is shown for combined data from different replicates. Two-sided t-tests with Welsh correction were performed for p < 0.05. ns = not significant. D) Quantification of wound healing experiment including blocking PRL-1 and PRL-3 with analog 3. Speed of migration is shown for combined data from different replicates, as mean ± SD (n = 63–82). Two-sided t-tests with Welsh correction were performed for p < 0.05.
(§6) Wound healing experiments were carried out with μ-dish 35mm culture inserts. 8 × 10^5 cells/mL of the respective HEK293 stable cell lines were seeded into each of the two insert wells and allowed to settle for 40 h in the presence of tetracycline. Then the inserts were gently removed and growth medium supplemented with 7.5% FBS and 0.1% tetracycline was added as well as procyanidin C2 (9) or procyanidin B3 (8) at a final concentration of 25, 50 or 75 μM. For the experiment including blocking of PRLs with analog 3, the latter one was added at a final concentration of 35 μM, followed by addition of procyanidin C2 (9) at either 25 or 50 μM final concentration. Negative controls contained growth medium with FBS only. Pictures of the wound gap were taken at 0 h and 7 h time points. A Zeiss Cellobserver HS microscope was used with 10 × magnitude. For data analysis, in each experiment, the distances between both cell fronts at time point 0 h and 7 h were measured by taking 20 different measuring points. Then all the measurements from different replicates (4) for each experiment were combined and analyzed by t-test using Welsh correction in GraphPad Prism. Data are shown with 99% confidence intervals.

Assay [7] has as its system PRL-3 overexpressing HEK293 cells. The experiment in a line: Wound healing assay. It is filed as cell-based. Conditions: 35 μM analog 3, PRL-3 overexpressing cells. The method, then: as §4, §5, §6
[8] abbreviates: 50 nM PRL-3, 30 min preincubation, 25°C, 21 μM DiFMUP, mean ± SEM (n = 3–5), read-out: IC50 (Ki) PRL-3.

Like-named read-outs stand apart in the source and are kept apart here.

T1 sequence (O75365 whole entry): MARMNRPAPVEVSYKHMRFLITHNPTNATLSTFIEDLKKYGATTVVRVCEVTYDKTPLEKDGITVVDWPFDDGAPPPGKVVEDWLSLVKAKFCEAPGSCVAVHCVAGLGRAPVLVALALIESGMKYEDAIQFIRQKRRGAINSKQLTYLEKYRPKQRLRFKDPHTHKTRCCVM
T4 sequence (P62139 whole entry): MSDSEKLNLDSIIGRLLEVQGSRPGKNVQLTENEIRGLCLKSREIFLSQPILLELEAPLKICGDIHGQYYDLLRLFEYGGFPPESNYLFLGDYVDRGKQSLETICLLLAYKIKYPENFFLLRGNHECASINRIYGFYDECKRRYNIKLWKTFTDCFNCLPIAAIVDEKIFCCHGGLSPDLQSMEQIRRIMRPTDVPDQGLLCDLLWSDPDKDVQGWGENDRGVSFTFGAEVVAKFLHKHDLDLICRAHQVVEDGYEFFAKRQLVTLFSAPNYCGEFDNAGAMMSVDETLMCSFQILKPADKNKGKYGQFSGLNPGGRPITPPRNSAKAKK
T5 sequence (P67775 whole entry): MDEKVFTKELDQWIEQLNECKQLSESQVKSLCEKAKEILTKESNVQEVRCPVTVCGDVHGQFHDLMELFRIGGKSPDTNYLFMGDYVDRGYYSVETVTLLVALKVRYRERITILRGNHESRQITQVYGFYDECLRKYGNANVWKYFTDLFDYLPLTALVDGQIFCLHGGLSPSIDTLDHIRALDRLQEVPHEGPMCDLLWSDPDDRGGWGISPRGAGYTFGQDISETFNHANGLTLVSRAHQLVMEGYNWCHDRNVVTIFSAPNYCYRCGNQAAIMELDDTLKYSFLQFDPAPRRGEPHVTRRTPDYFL
T5 sequence (P30153 2-589 partner limits assumed): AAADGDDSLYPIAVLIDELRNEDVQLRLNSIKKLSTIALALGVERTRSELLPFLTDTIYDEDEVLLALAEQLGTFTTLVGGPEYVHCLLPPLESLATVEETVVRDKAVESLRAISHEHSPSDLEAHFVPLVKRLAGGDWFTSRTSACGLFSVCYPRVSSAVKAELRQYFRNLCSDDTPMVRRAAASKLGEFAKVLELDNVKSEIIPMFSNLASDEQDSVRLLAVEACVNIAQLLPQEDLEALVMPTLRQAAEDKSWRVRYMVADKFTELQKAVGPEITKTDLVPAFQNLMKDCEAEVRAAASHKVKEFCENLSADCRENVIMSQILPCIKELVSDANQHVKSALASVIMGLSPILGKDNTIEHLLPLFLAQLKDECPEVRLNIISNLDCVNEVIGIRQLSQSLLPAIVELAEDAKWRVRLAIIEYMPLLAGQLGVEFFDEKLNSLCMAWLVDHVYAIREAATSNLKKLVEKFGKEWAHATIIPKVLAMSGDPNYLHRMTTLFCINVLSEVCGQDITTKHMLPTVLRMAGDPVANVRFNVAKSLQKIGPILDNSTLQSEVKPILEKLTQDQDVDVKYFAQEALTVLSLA

In general, IC50 refers to the concentration that inhibits the measured activity by half. With `Oc1cc(O)c2c(c1)O[C@H](c1ccc(O)c(O)c1)[C@@H](O)C2` [(+)-Catechin (6), (+)-Catechin], the IC50 amounted to 456 ± 65.6 µM in assay [1] (setting [8]) and 158 ± 1.2 µM in assay [2] (50 nM PRL-1, 30 min preincubation, 25°C, 24 μM DiFMUP, mean ± SEM (n = 3–5), read-out: IC50 (Ki) PRL-1). Moreover, in assay [2], the “IC50 toward PRL-1 relative to IC50 values of the oligomers” value was determined as 50 fold. For the same molecule, the “IC50 toward PRL-1 relative to PRL-3” value in assay [2] is “about three times lower”.

As for `Oc1cc(O)c2c(c1)O[C@H](c1ccc(O)c(O)c1)[C@H](O)C2` [EC (1), (–)-epicatechin], the IC50 in assay [1] (setting [8]) was determined as 514 ± 68.2 µM.

In the case of `O=C(O[C@@H]1Cc2c(O)cc(O)cc2O[C@@H]1c1ccc(O)c(O)c1)c1cc(O)c(O)c(O)c1` [ECG (2), (–)-epicatechin-3-O-gallate], the “increase in PRL-3 inhibition of 3-gallate ester compared to non-gallate (2 vs 1, 4 vs 3)” value in assay [1] is “about two-fold increase”. Besides, the IC50 in assay [1] (setting [8]) came out at 181 ± 13.6 µM.

Turning to `Oc1cc(O)c2c(c1)O[C@H](c1cc(O)c(O)c(O)c1)[C@H](O)C2` [EGC (3), (–)-epigallocatechin], the IC50 in assay [1] (setting [8]) is 285 ± 3.7 µM.

Turning to `O=C(O[C@H]1Cc2c(O)cc(O)cc2O[C@@H]1c1cc(O)c(O)c(O)c1)c1cc(O)c(O)c(O)c1` [GCG (5)], in assay [1] (setting [8]), the IC50 amounted to 113 ± 10.7 µM.

`O=C(O)c1cc(O)c(O)c(O)c1` [Gallic acid (7), Gallic acid] yielded an IC50 in assay [1] of more than 1000 µM. For the same molecule, in assay [1] (up to 1000 μM), the “inhibition of PRL-3” value was “did not show any inhibition”.

For the molecule `Oc1cc(O)c2c(c1)O[C@H](c1ccc(O)c(O)c1)[C@@H](O)[C@@H]2c1c(O)cc(O)c2c1O[C@H](c1ccc(O)c(O)c1)[C@@H](O)[C@@H]2c1c(O)cc(O)c2c1O[C@H](c1ccc(O)c(O)c1)[C@@H](O)[C@@H]2c1c(O)cc(O)c2c1O[C@H](c1ccc(O)c(O)c1)[C@@H](O)[C@@H]2c1c(O)cc(O)c2c1O[C@H](c1ccc(O)c(O)c1)[C@@H](O)[C@@H]2c1c(O)cc(O)c2c1O[C@H](c1ccc(O)c(O)c1)[C@@H](O)C2` [Hexamer (11)], the IC50 in assay [1] (setting [8]) came out at 12.5 ± 1.8 µM; in assay [3] it was 10 ± 0.4 µM; in assay [4] (2 mU PP1c, 30 min preincubation, 25°C, DiFMUP, no BSA, mean ± SEM (n = 3–5), read-out: IC50 (Ki) PP1), 7 ± 2.3 µM; in assay [5], 32.5 ± 4.8 µM. Further, in assay [4], the “PP1 potency of hexamer compared to tetramer 10” value is “increased only about two-fold”.

Regarding `Oc1cc(O)c2c(c1)O[C@H](c1cc(O)c(O)c(O)c1)[C@H](O)C2` [analog 3, reference compound], the “migration speed, wound healing” value in assay [6] was “a bit lower than the baseline”; in assay [7] it was “fell back to the baseline level of the empty vector cell line”.

These data come from paper PMC4520450, “Procyanidins Negatively Affect the Activity of the Phosphatases of Regenerating Liver” (PLoS ONE, 2015).
